pIC50: −log10 of the molar value. Values joined by “and” are separate entries in the source; they are usually repeats but may differ in a detail not shown here. Equal entries are not always repeated.
How the values were obtained:
H9c2 cardiomyocytes = experiment: Cell viability assay (MTT); assay type: cell-based, rat
Method in brief: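 Seeding/well: H9c2 3 × 10^3; MDA-MB-231, MCF-10A 5 × 10^3; HaCaT 1 × 10^4. Treatment began 24 h post-seeding; compounds ≤100 µM, 24 h or 48 h, 37 °C. Read-out MTT, % of DMSO control.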

E. faecalis ATCC 29212 = tested on: E. faecalis ATCC 29212; set-up: method as in PMID 29642369; conditions: cited from earlier work
[1] = tested on: vancomycin-resistant enterococci strains; set-up: method as in PMID 29642369; conditions: cited from earlier work
HepG2 cells = tested on: HepG2 cells; set-up: method as in PMID 29642369; conditions: HepG2, at 100 µM; cited from earlier work
HCT116 cells = tested on: HCT116 cells; set-up: method as in PMID 29642369; conditions: HCT116, at 100 µM; cited from earlier work
A549 cells = tested on: A549 cells; set-up: method as in PMID 29642369; conditions: A549, at 100 µM; cited from earlier work
A375 cells = tested on: A375 cells; set-up: method as in PMID 29642369; conditions: A375, at 100 µM; cited from earlier work
MCF-7 cells [2] = tested on: MCF-7 cells; set-up: method as in PMID 29642369; conditions: cited from earlier work
MCF-7 cells [3] = experiment: MCF-7 cell colony formation (clonogenic) assay; assay type: cell-based; conditions: Homo sapiens, MCF7, 240 h, 10 d
Method: The effect of the compound on colony formation by MCF-7 cells was assessed using a clonogenic assay. The concentration of MCF-7 cells was 0.33 × 10^3/mL. The cells were incubated for 10 d, fixed with methanol (25 min), stained with 0.5% crystal violet solution (25 min), and washed with PBS. The grown colonies were counted using a BIO-PRINT-Cx4 Edge-Fixed Pad-Container (Vilber, Collegien, France). The results are presented as colony inhibition compared to that of the control.

MCF-7 cells [4] = experiment: Proliferation assay (CFDA SE, flow cytometry); assay type: cell-based, human; conditions: 5 µM, 48 h
Method: MCF-7 cells at a concentration of 1.2 × 10^4 cells/well were seeded in a 12-well plate for 24 h. After adhesion, the cells were stained with (5,6)-carboxyfluorescein succinimidyl ester (CFDA SE) dye (LumiTrace CFDA SE kit; Lumiprobe, Moscow, Russia). Thereafter, the compound (5 µM) was added to the wells.
After 48 h of incubation, the cells were washed twice with PBS, scraped, and collected. The intensity of CFDA fluorescence was analyzed using a NovoCyte flow cytometer (Agilent, Austin, TX, USA), and the data were analyzed as previously described.

MCF-7 cells [5] = experiment: Cell cycle investigation (propidium iodide, flow cytometry); assay type: cell-based, human
Method: After incubation, the cells were trypsinized, harvested, washed with PBS, and fixed with ice-cold 70% ethanol in a dropwise manner prior to storage at −20 °C overnight. The cells were then washed with PBS, incubated with 200 μg/mL RNAse (PanReac, AppliChem, Darmstadt, Germany) and 20 μg/mL of propidium iodide (Sigma-Aldrich, St. Louis, MO, USA) for 30 min at 37 °C, and DNA content was analyzed using a NovoCyte flow cytometer (Agilent, Austin, TX, USA). The proportion of cells in each cell cycle phase was expressed as a percentage.

COC1=C(c2c[nH]c3ccccc23)C(=O)C(CC=C(C)C)=C(c2c[nH]c3ccccc23)C1=O [Compound 6, kumbicin D]
cell viability (H9c2 cardiomyocytes; H9c2, 24 h, 1.0 µM): 104.0 ± 12.9 % of control
cell viability (H9c2 cardiomyocytes; H9c2, 24 h, 10.0 µM): 92.9 ± 6.1 % of control
cell viability (H9c2 cardiomyocytes; H9c2, 24 h, 100.0 µM): 30.9 ± 2.9 % of control
cell viability (H9c2 cardiomyocytes; H9c2, 48 h, 1.0 µM): 99.7 ± 3.7 % of control
cell viability (H9c2 cardiomyocytes; H9c2, 48 h, 10.0 µM): 88.6 ± 2.3 % of control
cell viability (H9c2 cardiomyocytes; H9c2, 48 h, 100.0 µM): 21.6 ± 2.2 % of control
antibacterial activity (E. faecalis ATCC 29212): not active
antibacterial activity [1]: not active
effect on cells (HepG2 cells): weak effects
effect on cells (HCT116 cells): weak effects
effect on cells (A549 cells): weak effects
effect on cells (A375 cells): weak effects
effect on cells (MCF-7 cells [2]; MCF-7, at 100 µM): weak effects

COc1c(OC)c(-c2c[nH]c3ccc(O)cc23)c(OC)c(OC)c1-c1c[nH]c2ccccc12 [Compound 8, petromurin C]
cell viability (H9c2 cardiomyocytes; H9c2, 24 h, 1.0 µM): 100.9 ± 1.7 % of control
cell viability (H9c2 cardiomyocytes; H9c2, 24 h, 10.0 µM): 95.9 ± 2.3 % of control
cell viability (H9c2 cardiomyocytes; H9c2, 24 h, 100.0 µM): 57.4 ± 8.5 % of control
cell viability (H9c2 cardiomyocytes; H9c2, 48 h, 1.0 µM): 101.6 ± 2.2 % of control
cell viability (H9c2 cardiomyocytes; H9c2, 48 h, 10.0 µM): 79.8 ± 4.6 % of control
cell viability (H9c2 cardiomyocytes; H9c2, 48 h, 100.0 µM): 55.8 ± 5.5 % of control
inhibition at 5 µM (MCF-7 cells [3]; 5 µM): 16.8%
inhibition at 10 µM (MCF-7 cells [3]; 10 µM): 20.4%
percentage of cells in division 1 (MCF-7 cells [4]): 76.9%
percentage of cells in division 2 (MCF-7 cells [4]): 15.2%
percentage of cells in division 3 (MCF-7 cells [4]): 5.5%
Cell Disturbance, G1 Phase (MCF-7 cells [5]; 1 h, 5 µM): 22.69 ± 0.42%
Cell Disturbance, G2/M Phase (MCF-7 cells [5]; 1 h, 5 µM): 29.91 ± 1.95%
Cell Disturbance, S Phase (MCF-7 cells [5]; 1 h, 5 µM): 45.52 ± 1.05%
Cell Disturbance, G1 Phase (MCF-7 cells [5]; 1 h, 10 µM): 21.37 ± 2.18%
Cell Disturbance, G2/M Phase (MCF-7 cells [5]; 1 h, 10 µM): 25.9% and 25.96 ± 0.62 %
Cell Disturbance, S Phase (MCF-7 cells [5]; 1 h, 10 µM): 53.1% and 53.15 ± 1.53 %
Cell Disturbance, G1 Phase (MCF-7 cells [5]; 3 h, 5 µM): 26.2% and 26.20 ± 1.17 %
Cell Disturbance, G2/M Phase (MCF-7 cells [5]; 3 h, 5 µM): 17.2% and 17.20 ± 1.23 %
Cell Disturbance, S Phase (MCF-7 cells [5]; 3 h, 5 µM): 56.6% and 56.60 ± 1.25 %
Cell Disturbance, G1 Phase (MCF-7 cells [5]; 3 h, 10 µM): 33.82 ± 0.98%
Cell Disturbance, G2/M Phase (MCF-7 cells [5]; 3 h, 10 µM): 14.9% and 14.95 ± 1.08 %
Cell Disturbance, S Phase (MCF-7 cells [5]; 3 h, 10 µM): 51.8% and 51.79 ± 0.86 %
antibacterial activity (E. faecalis ATCC 29212): did not inhibit the growth
pIC50 (MCF-7 cells [2]; MCF-7 cells, read-out: IC50, cell viability): 4.02
